Legend:
[1] = Dermal irritancy of preservatives in intradermal formulations (Draize dermal irritation scoring); assay type: in vivo, human; settings: irritancy potential had been seen in animal models such as swine
Excerpt: Benzyl alcohol, m-cresol and other preservatives were previously thought to be deleterious for inclusion in ID formulations based on their potential for dermal irritancy measured in animal models such as swine (Draize Irritancy Scores, NB 00-8440-01). In humans, however, these effects are not observed and beneficial results are gained in the perception of reduced pain.
(§1) Typically, each participating subject received a series of ‘treatments’ consisting of intradermal infusions or injections of either sterile unpreserved isotonic saline, or sterile bacteriostatic isotonic saline for injection in the anterior thigh using microneedle-based intradermal injection devices. Participants were asked to rate the pain immediately after the device was applied to the skin, and at the end of the injection/infusion procedure. In addition, injection sites were evaluated for irritation using the Draize dermal irritation scoring scale for erythema and edema, and for the presence of any other adverse skin effects, occurring at the time of injection or developing at a later time.

[2] = Pain perception of intradermal injection/infusion, Gracely Box SL Scale (0-20), human clinical study; assay type: in vivo; settings: recent clinical trials
Method: A series of prospective, randomized, open label human clinical studies were conducted. The following inclusion criteria was typically used: • 18 years of age or older • In stable health status with no acute or severe illness • Willing to complete all study procedures • Available for designated study days
as §1, with “time. […]” for “time.”
Pain was determined using a Gracely Box SL Scale (reference: Heft, Gracely and Dubner, Pain, 1980, 9:363-373). Pain scores were typically recorded after insertion of the intradermal delivery device, and upon complete intradermal instillation of the total saline dose. […]
Typically, pain scale scores were analyzed by ANOVA using a linear-type model. […]

Row | Compound | Dermal irritancy effects in humans [1] | Pain scores for intradermal delivery compared with preservative-free solutions [2]
1 | OCc1ccccc1 [Benzyl alcohol] | not observed | 
2 | Cc1cccc(O)c1 [m-cresol] | not observed | 
3 | insulin |  | significantly lower pain scores

Source: patent US20050203000A1, “Use of benzyl alcohol, and other phenolic preservatives to reduce pain during intradermal injection” (priority 2003, published 2005)
